The test system of this test is 377384-186-R-J1-PDC complex spheroid viability. Kind of test: Anticancer human tumor 377384-186-R-J1-PDC patient-derived pancreatic carcinoma cell line growth inhibition [RAS]. The settings on record: for viability, T/C: stronger effect = lower value. From the text:
RAS pathway inhibitors in Combinations in Complex Spheroids
A high-throughput screen of multi-cell type tumor spheroids was designed to identify active combinations of RAS pathway inhibitors and targeted small molecules. Complex spheroids include a stromal component modeled by human endothelial cells (HUVEC) and fibroblasts modeled by human mesenchymal stem cells (MSCs). The concentration ranges selected for each drug and investigational agent were based upon clinically achievable concentrations if the clinical Cmax of the agent was known.
Compounds. The drugs and investigational agents: abemaciclib (NSC768073), cobimetinib (NSC768068), divarasib (GDC6063, NSC841802), docetaxel (NSC628503), GDC-1971 (RLY-1971, NSC841576), gemcitabine (NSC613327), inavolisib (NSC800729), ipatasertib (NSC767898), KB-0742 (NSC834161), MRTX-1133 (NSC836407), osimertinib (NSC779217), RMC-4630 (NSC839698), RMC-6236 (NSC851965), RMC-6291 (NSC852671), Ro-3306 (NSC812927), sapanisertib (NSC764658), SN-38 (NSC673596), staurosporine (NSC755774), SY5609 (NSC837396), and tovorafenib (DAY101, NSC766906), were obtained from the National Cancer Institute (NCI) Developmental Therapeutics Program Chemical Repository. The FDA-approved anticancer drug set is available from the NCI Developmental Therapeutics Program. […] The stock solutions were prepared in dimethyl sulfoxide (DMSO, Sigma-Aldrich, St. Louis, MO, cat. D2650) at 800-fold the tested concentration and stored at -70 degrees C prior to their use. All drugs and investigational agents were tested over a range starting from a high concentration at or near the clinical Cmax and decreasing in half-log increments. If the clinical Cmax for an agent had not been determined, the highest concentration tested was 10 microM.
Cell Culture. All cells were maintained in an incubator at 37 degrees C and 5% CO2 with 95% humidity. The PDC lines were cultured according to standard operating procedures established by the NCI PDMR. All PDCs were thawed and cultured in Matrigel-coated flasks prepared with a working solution of 1X Ham's F-12 nutrient mix, without supplementation (Invitrogen, Waltham, MA, cat. 11765054), 100 U/mL penicillin-streptomycin (Invitrogen, cat. 15140122), and 2.5% Matrigel (Corning Inc., Corning, NY, cat. 354248) for the first three passages. The 362531-283-R-J2-PDC and 782815-120-R-J1-PDC lines were cultured in 6C/Colon 1B media, which includes advanced DMEM/F-12 (Thermo Fisher Scientific, cat. 12634028), 10 mM HEPES (Thermo Fisher Scientific, cat. 15630080), 1X GlutaMAX supplement (Thermo Fisher Scientific, cat. 35050061), 0.1 mg/mL primocin (InvivoGen, San Diego, CA, cat. ant-pm-2), 10% defined fetal bovine serum, heat inactivated (HyClone Laboratories Inc., Logan, UT, cat. SH30070.03HI), 50% L-WRN conditioned media (ATCC, cat. CRL-3276), 1.25 mM N-Acetyl-L-cysteine (Sigma-Aldrich, cat. A9165), 10 mM nicotinamide (Sigma-Aldrich, cat. N0636), 1X B-27 supplement (Thermo Fisher Scientific, cat. 17504044), 1X N-2 supplement (Thermo Fisher Scientific, cat. 17502048), 50 ng/mL human EGF (Thermo Fisher Scientific, cat. PHG0311), and 10 microM Y-27632 dihydrochloride (Tocris Bioscience, cat. 1254). The K12877-001-R-J1-PDC line was cultured in 6I media, which includes all 6C/Colon 1B media plus 10 ng/mL human FGF-10 (PeproTech, cat. 100-26), 1 ng/mL human FGF-2 (PeproTech, cat. 100-18B), 1 µM prostaglandin E2 (Tocris Bioscience, cat. 2296), […] hydrocortisone (Sigma-Aldrich, cat. H4001), and […] bovine insulin (Sigma-Aldrich, cat. I6634). The K86415-001-R-J1-PDC line was cultured in 6D media, which includes all 6C/Colon 1B media components minus the L-WRN conditioned media. The 485176-168-R4-J1-PDC was cultured in PANC media, which includes all 6C/Colon 1B media plus 100 ng/mL human FGF-10 (PeproTech, cat. 100-26), 500 nM SB-431542 (Selleckchem, cat. S1067), and 10 nM gastrin (Tocris Bioscience, cat. 3006). […]

The mark [1] stands for this setting: compound alone, run of 09/09/2024.

Several values for one entry are separate records, joined by “and”; a condition that tells them apart may be missing. Identical values can stand only once.

By viability, T/C is commonly meant the ratio of treated to control. The IC50 is the concentration needed to halve the response being measured.
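Note: spheroids exposed to compounds for seven days before readout.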

Regarding `C#Cc1c(F)ccc2cc(O)cc(-c3ncc4c(N5CC6CCC(C5)N6)nc(OCC56CCCN5CC(F)C6)nc4c3F)c12` (configuration not stated), the viability, T/C is, setting by setting: (compound 0.0316 µM) 25.6% [middle of 8 runs]; (compound 0.1 µM) 11.4% [middle of 8 runs]; (compound 0.316 µM) 4.64% [middle of 8 runs]; (compound 1 µM) 3.15% [middle of 8 runs]; (compound 3.16 µM) 2.31% [middle of 8 runs]; (compound 10 µM) 1.33% [middle of 8 runs]. The IC50 under setting [1] is less than 31.6 nM.

Take `C=CC(=O)N1CCN(c2nc(OCC3CCCN3C)nc3c(F)c(-c4nc(N)cc(C)c4C(F)(F)F)c(Cl)cc23)C(C)C1` (configuration not stated): the viability, T/C runs as follows: (compound 0.00316 µM) 96.1% [middle of 12 runs]; (compound 0.0316 µM) 95.5% [middle of 12 runs]; (compound 1 µM) 96.5% [middle of 12 runs]. Also, the half-inhibitory concentration (IC50) by setting is: under setting [1], more than 1000 nM; (curve of compound) more than 1000 nM.

For the compound `C=CC(=O)Nc1cc(Nc2nccc(-c3cn(C)c4ccccc34)n2)c(OC)cc1N(C)CCN(C)C`, the viability, T/C (compound 0.00316 µM) is 95.6% [middle of 4 runs]; the viability, T/C (compound 0.01 µM) was 97.8% [middle of 4 runs]; the viability, T/C (compound 0.0316 µM) was 92.6% [middle of 4 runs]; the viability, T/C (compound 0.1 µM) is 87.7% [middle of 4 runs]; the viability, T/C (compound 0.316 µM) is 64.9% [middle of 4 runs]; the viability, T/C (compound 1 µM) was 40.4% [middle of 4 runs]. In addition, the concentration for half-maximal inhibition (IC50) (curve of compound) was 639 nM [middle of 4 runs].

Take `CC(C)n1nc(-c2ccc3oc(N)nc3c2)c2c(N)ncnc21`: the viability, T/C is 80.6% [middle of 4 runs] (compound 0.001 µM), 69% [middle of 4 runs] (compound 0.00316 µM), 61.9% [middle of 4 runs] (compound 0.01 µM) and 34.8% [middle of 4 runs] (compound 0.0316 µM).

As to `CC(Nc1ccc2c(c1)OCCn1cc(N3C(=O)OCC3C(F)F)nc1-2)C(N)=O` (configuration not stated), the viability, T/C is 76% [middle of 4 runs] (compound 0.0316 µM); 63.8% [middle of 4 runs] (compound 0.1 µM); 55.8% [middle of 4 runs] (compound 0.316 µM); 47.9% and 40.3% (2×) and 48.2% (compound 1 µM); 33.7% [middle of 4 runs] (compound 3.16 µM); 30.7% [middle of 4 runs] (compound 10 µM). The half-inhibitory concentration (IC50) (curve of compound) was 476 nM [middle of 4 runs].

With `CC1(C)CCC(Nc2ncc(C(F)(F)F)c(-c3c[nH]c4c(P(C)(C)=O)c(C#N)ccc34)n2)CN1` (configuration not stated), the viability, T/C reads like this: (compound 0.000949 µM) 84% [middle of 4 runs]; (compound 0.003 µM) 59.5% [middle of 4 runs]; (compound 0.00949 µM) 30% [middle of 4 runs]; (compound 0.03 µM) 21.3% [middle of 4 runs]; (compound 0.0949 µM) 16.6% [middle of 4 runs]; (compound 0.3 µM) 16.1% [middle of 4 runs]. Moreover, the IC50 (curve of compound) is 4.35 nM [middle of 4 runs].

In the case of `CC1(O)CCCC1n1c(=O)c(C(F)F)cc2cnc(NC3CCN(S(C)(=O)=O)CC3)nc21` (configuration not stated), the viability, T/C was 77.2% [middle of 4 runs] (compound 0.0316 µM); 50% [middle of 4 runs] (compound 0.1 µM); 21.1% [middle of 4 runs] (compound 0.316 µM); 25.5% [middle of 4 runs] (compound 1 µM); 34.8% [middle of 4 runs] (compound 3.16 µM); 6.6% [middle of 4 runs] (compound 10 µM). Also, the IC50 (curve of compound) is 100 nM [middle of 4 runs].

In the case of `CCN1CCN(Cc2ccc(Nc3ncc(F)c(-c4cc(F)c5nc(C)n(C(C)C)c5c4)n3)nc2)CC1`, the viability, T/C runs as follows: (compound 0.00316 µM) 98.7% [middle of 4 runs]; (compound 0.01 µM) 79.1% [middle of 4 runs]; (compound 0.0316 µM) 70.3% [middle of 4 runs]; (compound 0.1 µM) 60% [middle of 4 runs]; (compound 0.316 µM) 44.2% [middle of 4 runs]; (compound 1 µM) 38% [middle of 4 runs]. Also, the half-maximal inhibitory concentration (IC50) (curve of compound) is 194 nM [middle of 4 runs].

Take `CCc1c2c(nc3ccc(O)cc13)-c1cc3c(c(=O)n1C2)COC(=O)[C@]3(O)CC`: the viability, T/C is 69.8% [middle of 4 runs] (compound 0.000949 µM); 35% [middle of 4 runs] (compound 0.003 µM); 16.7% [middle of 4 runs] (compound 0.00949 µM); 7.4% [middle of 4 runs] (compound 0.03 µM); 2.65% [middle of 4 runs] (compound 0.0949 µM); 2.02% [middle of 4 runs] (compound 0.3 µM). Further, the IC50 (curve of compound) is 1.8 nM [middle of 4 runs].

With `CCn1c(-c2cc(N3CCN(C)CC3)cnc2C(C)OC)c2c3cc(ccc31)-c1csc(n1)CC(NC(=O)C1CC1C)C(=O)N1CCCC(N1)C(=O)OCC(C)(C)C2` (configuration not stated), the viability, T/C is 51.8% [middle of 8 runs] (compound 0.000949 µM); 21.4% [middle of 8 runs] (compound 0.003 µM); 5.65% [middle of 8 runs] (compound 0.00949 µM); 2.68% [middle of 8 runs] (compound 0.03 µM); 2.25% [middle of 8 runs] (compound 0.0949 µM); 1.95% [middle of 7 runs] (compound 0.3 µM).

In the case of `CCn1c(-c2cccnc2C(C)OC)c2c3cc(ccc31)N1CCOC(CC(NC(=O)C(C(C)C)N(C)C(=O)C3(F)CCN(C(=O)C#CC(C)(C)N(C)C)CC3)C(=O)N3CCCC(N3)C(=O)OCC(C)(C)C2)C1` (configuration not stated), the viability, T/C runs as follows: (compound 0.000949 µM) 105% [middle of 8 runs]; (compound 0.003 µM) 109% [middle of 8 runs]; (compound 0.03 µM) 99.3% [middle of 8 runs]; (compound 0.0949 µM) 99.5% [middle of 8 runs]; (compound 0.3 µM) 88% [middle of 8 runs]. Besides, the IC50 (compound alone, run of 08/20/2024) is more than 300 nM.

With `C[C@@H](NC(=O)c1ncnc(N)c1Cl)c1ncc(C(=O)Nc2cc(C(F)(F)F)c(Cl)cn2)s1`, the viability, T/C was 95.1% [middle of 4 runs] (compound 0.0316 µM); 99.2% [middle of 4 runs] (compound 0.1 µM); 117% (2×) and 109% and 132% (compound 1 µM). For the same compound, the half-inhibitory concentration (IC50) (curve of compound) was more than 10000 nM.

For the compound `Nc1ccn(C2OC(CO)C(O)C2(F)F)c(=O)n1` (configuration not stated), the viability, T/C is, setting by setting: (compound 0.01 µM) 36.6% [middle of 4 runs]; (compound 0.0316 µM) 21.4% and 7.24% and 10.1% (2×); (compound 0.1 µM) 5.39% [middle of 4 runs]; (compound 0.316 µM) 4.06% [middle of 4 runs]; (compound 1 µM) 3.19% [middle of 4 runs]. For the same compound, where the note is “curve of compound”, the concentration for half-maximal inhibition (IC50) was 6.44 nM [middle of 4 runs].

`O=C(c1ccc(F)c(F)c1Nc1ccc(I)cc1F)N1CC(O)([C@@H]2CCCCN2)C1`: the viability, T/C reads like this: (compound 0.00316 µM) 85.8% [middle of 4 runs]; (compound 0.01 µM) 79.5% [middle of 4 runs]; (compound 0.0316 µM) 56.3% [middle of 4 runs]; (compound 0.1 µM) 21.3% (2×) and 13.7% and 21.1%; (compound 0.316 µM) 2.49% [middle of 4 runs]; (compound 1 µM) 0.68% [middle of 4 runs]. Further, the half-inhibitory concentration (IC50) (curve of compound) was 39.2 nM [middle of 4 runs].
